# Where two headings read alike, the source gives them in different places. Marks after values point to notes of the source that are not given here.
# Assays:
# [1] = system: Septoria tritici; assay: Test D: wheat leaf blotch, preventive spray on wheat seedlings, visual disease rating; format: in vivo; conditions: 100 = 100 % disease control, 0 = no disease control relative to controls
# Source text: A dash (−) indicates no test results.
# [2] = system: Phytophthora infestans; format: in vivo; conditions: 100 = 100 % disease control, 0 = no disease control relative to controls
# [3] = system: Puccinia recondita f. sp. tritici; assay: Test B: wheat leaf rust, preventive spray on wheat seedlings, visual disease rating; conditions: 100 = 100 % disease control, 0 = no disease control relative to controls
# [4] = system: Botrytis cinerea; assay: Test E: tomato Botrytis, preventive spray on tomato seedlings, visual disease rating; conditions: 100 = 100 % disease control, 0 = no disease control relative to controls
# Source text: General protocol for preparing test suspensions for Tests A-I: The test compounds were first dissolved in acetone in an amount equal to 3% of the final volume and then suspended at the desired concentration (in ppm) in acetone and purified water (50/50 mix) containing 250 ppm of the surfactant Trem® 014 (polyhydric alcohol esters). The resulting test suspensions were then used in Tests A-I. Spraying a 200 ppm test suspension to the point of run-off on the test plants was the equivalent of a rate of 500 g/ha.
# The test suspension was sprayed to the point of run-off on tomato seedlings. The following day the seedlings were inoculated with a spore suspension of Botrytis cinerea (the causal agent of tomato Botrytis) and incubated in saturated atmosphere at 20° C. for 48 h, and then moved to a growth chamber at 24° C. for 3 additional days, after which time visual disease ratings were made.
# (§1) All results are for 200 ppm except where followed by “*” which indicates 40 ppm.
# [5] = system: Septoria nodorum; assay: Test C: wheat glume blotch, preventive spray on wheat seedlings, visual disease rating; conditions: 100 = 100 % disease control, 0 = no disease control relative to controls
# [6] = system: Erysiphe graminis f. sp. tritici; assay: Test A: wheat powdery mildew, preventive spray on wheat seedlings, visual disease rating; conditions: 100 = 100 % disease control, 0 = no disease control relative to controls
# Source text: (§2) General protocol for preparing test suspensions for Tests A-I: The test compounds were first dissolved in acetone in an amount equal to 3% of the final volume and then suspended at the desired concentration (in ppm) in acetone and purified water (50/50 mix) containing 250 ppm of the surfactant Trem® 014 (polyhydric alcohol esters). The resulting test suspensions were then used in Tests A-I. Spraying a 200 ppm test suspension to the point of run-off on the test plants was the equivalent of a rate of 500 g/ha. (An asterisk “*” next to the rating value indicates a 40 ppm test suspension.)
# The test suspension was sprayed to the point of run-off on wheat seedlings. The following day the seedlings were inoculated with a spore dust of Erysiphe graminis f. sp. tritici (the causal agent of wheat powdery mildew) and incubated in a growth chamber at 20° C. for 8 days, after which time visual disease ratings were made.
# [7] = system: Alternaria solani; assay: Test F: tomato early blight, preventive spray on tomato seedlings, visual disease rating; conditions: 100 = 100 % disease control, 0 = no disease control relative to controls
# Source text: as §2
# The test suspension was sprayed to the point of run-off on tomato seedlings. The following day the seedlings were inoculated with a spore suspension of Alternaria solani (the causal agent of tomato early blight) and incubated in a saturated atmosphere at 27° C. for 48 h, and then moved to a growth chamber at 20° C. for 5 days, after which time visual disease ratings were made.
# (§3) A dash (−) indicates no test results. All results are for 200 ppm except where followed by “*” which indicates 40 ppm.
# [8] = system: Plasmopara viticola; assay: Test I: grape downy mildew, spray on grape seedlings after inoculation, visual disease rating; conditions: 100 = 100 % disease control, 0 = no disease control relative to controls
# Source text: as §2
# Grape seedlings were inoculated with a spore suspension of Plasmopara viticola (the causal agent of grape downy mildew) and incubated in a saturated atmosphere at 20° C. for 24 h. After a short drying period, the test suspension was sprayed to the point of run-off on the grape seedlings and then moved to a growth chamber at 20° C. for 6 days, after which time the test units were placed back into a saturated atmosphere at 20° C. for 24 h. Upon removal, visual disease ratings were made.
# as §1
# [9] = system: Rhizoctonia oryzae; assay: Test G: turf brown patch, preventive spray on creeping bent grass seedlings, visual disease rating; conditions: 100 = 100 % disease control, 0 = no disease control relative to controls
# Procedure: The test suspension was sprayed to the point of run-off on creeping bent grass seedlings. The following day the seedlings were inoculated with a spore suspension of Rhizoctonia oryzae (the causal agent of turf brown patch) and incubated in a saturated atmosphere at 27° C. for 48 h, and then moved to a growth chamber at 27° C. for 3 days, after which time visual disease ratings were made.
# as §3
SMILES,Test D disease control rating ([1]; 40 ppm (marked *)),Test H disease control rating ([2]; 40 ppm (marked *)),Test B disease control rating ([3]; 40 ppm (marked *)),Test E disease control rating ([4]; 40 ppm (marked *)),Test C disease control rating ([5]; 40 ppm (marked *)),Test A disease control rating ([6]; 40 ppm (marked *)),Test F disease control rating ([7]; 40 ppm (marked *)),Test I disease control rating ([8]; 40 ppm (marked *)),Test G disease control rating ([9]; 40 ppm (marked *)),Test D disease control rating ([1]; 200 ppm) [%],Test H disease control rating ([2]; 200 ppm) [%],Test B disease control rating ([3]; 200 ppm) [%],Test E disease control rating ([4]; 200 ppm) [%],Test C disease control rating ([5]; 200 ppm) [%],Test A disease control rating ([6]; 200 ppm) [%],Test F disease control rating ([7]; 200 ppm) [%],Test I disease control rating ([8]; 200 ppm) [%],Test G disease control rating ([9]; 200 ppm) [%],melting point [°C]
Cc1ccc(-c2ccc(C3CC(c4cccnc4)(C(F)(F)F)ON3C)cc2)cc1 (racemic) [Compound 25],86* %,0* %,0* %,71* %,0* %,100* %,0* %,0* %,0* %,,,,,,,,,,
"CN1O[C@](C)(c2cnccn2)C[C@@H]1c1ccc(-c2ccccc2)cc1 (relative stereo) [Compound 21, rel-2-[(3R,5S)-3-[1,1′-biphenyl]-4-yl-2,5-dimethyl-5-isoxazolidinyl]pyrazine]",95* %,0* %,0* %,0* %,0* %,97* %,62* %,0* %,0* %,,,,,,,,,,
CN1OC(C)(c2cccnc2)CC1c1ccc(Oc2ccc(F)cc2)cc1 (racemic) [Compound 19],,,,,,,,,,98,0,91,98,99,98,7,0,0,
"CN1O[C@@](C)(c2cccnc2)C[C@@H]1c1ccc(-n2ccc(C(F)(F)F)n2)cc1 (relative stereo) [Compound 36, rel-3-[(3R,5R)-2,5-dimethyl-3-[4-[3-(trifluoromethyl)-1H-pyrazol-1-yl]phenyl]-5-isoxazolidinyl]pyridine]",73* %,0* %,0* %,22* %,0* %,79* %,23* %,0* %,7* %,,,,,,,,,,
Cc1ccc(-c2ccc(C3CC(c4cccnc4)(C(F)(F)F)ON3C)cc2)cc1 (racemic) [Compound 26],75* %,0* %,0* %,0* %,0* %,96* %,0* %,0* %,0* %,,,,,,,,,,
CN1OC(c2cccnc2)(C(F)(F)F)CC1c1ccc(Br)cc1 (racemic) [Compound 30],,,,,,,,,,83,0,89,0,92,100,0,58,0,
Cc1cccc(-c2ccc(C3CC(c4cccnc4)(C(F)(F)F)ON3C)cc2)c1C (racemic) [Compound 31],50* %,0* %,,0* %,0* %,98* %,0* %,,0* %,,,0,,,,,0,,
CN1OC(C)(c2cccnc2)CC1c1ccc(-c2ccc(OC(F)(F)F)cc2)cc1 (racemic) [Compound 18],58* %,0* %,0* %,0* %,0* %,0* %,7* %,0* %,0* %,,,,,,,,,,
"CN1O[C@](C)(c2cccnc2)C[C@@H]1c1ccc(-n2cc(Br)cn2)cc1 (relative stereo) [Compound 37, rel-3-[(3R,5S)-3-[4-(4-bromo-1H-pyrazol-1-yl)phenyl]-2,5-dimethyl-5-isoxazolidinyl]pyridine]",99* %,0* %,74* %,,99* %,95* %,93* %,0* %,0* %,,,,94,,,,,,
Cc1cccc(-c2ccc(C3CC(c4cccnc4)(C(F)(F)F)ON3C)cc2)c1C (racemic) [Compound 32],,,,,,,,,,85,0,0,0,0,97,0,9,0,
CN1OC(C)(c2cccnc2)CC1c1ccc(Oc2ccc(F)cc2)cc1 (racemic) [Compound 20],,,,,,,,,,92,0,92,0,78,91,0,0,0,
CN1OC(c2cccnc2)(C(F)(F)F)CC1c1ccc(Br)cc1 (racemic) [Compound 29],76* %,0* %,0* %,0* %,67* %,98* %,83* %,0* %,0* %,,,,,,,,,,
"CN1O[C@@](c2cccnc2)(C(F)(F)F)C[C@@H]1c1ccc(I)cc1 (relative stereo) [Compound 27, rel-3-[(3R,5S)-3-(4-iodophenyl)-2-methyl-5-(trifluoromethyl)-5-isoxazolidinyl]pyridine]",95* %,0* %,0* %,0* %,100* %,100* %,100* %,0* %,0* %,,,,,,,,,,80 to 83
CN1O[C@@](C)(c2cnccn2)C[C@@H]1c1ccc(-c2ccccc2)cc1 (relative stereo) [Compound 22],97* %,0* %,0* %,0* %,0* %,86* %,0* %,0* %,0* %,,,,,,,,,,
"CN1O[C@](c2cccnc2)(C(F)(F)F)C[C@@H]1c1ccc(I)cc1 (relative stereo) [Compound 28, rel-3-[(3R,5R)-3-(4-iodophenyl)-2-methyl-5-(trifluoromethyl)-5-isoxazolidinyl]pyridine]",88* %,0* %,0* %,0* %,33* %,99* %,0* %,0* %,0* %,,,,,,,,,,108 to 110
CN1OC(C)(c2cccnc2)CC1c1ccc(-n2cc(Br)cn2)cc1 (centres unmarked) [Compound 38],77* %,0* %,0* %,0* %,0* %,0* %,42* %,0* %,0* %,,,,,,,,,,

# — patent US20090270407A1, “FUNGICIDAL ISOXAZOLIDINES” (E. I. DU PONT DE NEMOURS AND COMPANY, priority 2008, published 2009)
